Here are results for ten compounds from PubChem BioAssay (NCI).

Among the test systems are IGROV1 ovarian; MOLT-4 leukemia; OVCAR-3 ovarian; HT29 colon; MALME-3M melanoma; ACHN renal; M14 melanoma; U251 CNS; CCRF-CEM leukemia; EKVX NSCLC.
What all share (assay): NCI anticancer screen, dose series, 48 h

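Interpolation was linear, between the two tested concentrations surrounding the appropriate level; five concentrations were tested over 48 hours in 96-well plates. Here, GI50 denotes the concentration required for 50% inhibition of growth. The concentration for full growth arrest is given as TGI.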 Some results are limits rather than exact numbers.

Regarding `COc1cccc(/C=N/NC(=O)c2ccccc2Nc2ccnc(C(F)(F)F)c2)c1O`, the GI50 in the assay with IGROV1 ovarian was 0.0234 µM; in the assay on MOLT-4 leukemia, 0.196 µM; with OVCAR-3 ovarian it was 0.169 µM; in the assay on HT29 colon it was 4.06 µM; in the assay with MALME-3M melanoma it was 0.964 µM; in the assay on ACHN renal, 0.279 µM. Moreover, the GI50 is 0.375 µM in the assay with M14 melanoma, 0.449 µM in the assay with U251 CNS, 0.115 µM in the assay on CCRF-CEM leukemia and 0.517 µM in the assay with EKVX NSCLC. The TGI in the assay on IGROV1 ovarian was 0.0745 µM; in the assay with MOLT-4 leukemia, 1.19 µM; with OVCAR-3 ovarian it was 43.9 µM; with HT29 colon it was over 100 µM; in the assay with MALME-3M melanoma, 33.6 µM; with ACHN renal it was over 100 µM. In addition, the TGI with M14 melanoma was over 23.2 µM; with U251 CNS, over 100 µM; with CCRF-CEM leukemia, 2.02 µM; in the assay on EKVX NSCLC, over 100 µM.

Regarding `Cc1nc2c(nc1Cl)nc(Oc1ccc(Cl)cc1)c1ccccc12`, the TGI with IGROV1 ovarian, in the assay with MOLT-4 leukemia, in the assay on OVCAR-3 ovarian, in the assay with HT29 colon, in the assay on MALME-3M melanoma and in the assay on ACHN renal was over 100 µM throughout. In addition, the TGI is over 100 µM with M14 melanoma, 40.6 µM with U251 CNS, over 100 µM with CCRF-CEM leukemia and over 100 µM with EKVX NSCLC.

For `CCCCCCCCCCCC(=O)CC(=O)c1c(O)cccc1O`, the TGI with IGROV1 ovarian was 36.4 µM; in the assay with MOLT-4 leukemia, 41.9 µM; in the assay on OVCAR-3 ovarian it was 34.4 µM; with HT29 colon, 33.7 µM; in the assay with MALME-3M melanoma it was 32.6 µM; in the assay on ACHN renal, 35.2 µM. Further, the TGI is 32.9 µM in the assay with M14 melanoma, 31.5 µM with U251 CNS, over 100 µM with CCRF-CEM leukemia and 33.4 µM with EKVX NSCLC.

Regarding `COc1ccc(CNc2cc(OC)c(OC)c(OC)c2)cc1`, the TGI is over 100 µM with IGROV1 ovarian; over 77.8 µM in the assay on MOLT-4 leukemia; over 48.5 µM in the assay with OVCAR-3 ovarian; over 100 µM in the assay with HT29 colon; over 100 µM in the assay on MALME-3M melanoma; over 100 µM in the assay with ACHN renal. The TGI in the assay with M14 melanoma was over 100 µM; in the assay on U251 CNS it was 24.3 µM; in the assay with CCRF-CEM leukemia it was over 100 µM; with EKVX NSCLC, 98.9 µM.

On to `O=C(Nc1ccc(N2CCNCC2)cc1)c1[nH]ncc1Nc1cc(Oc2ccccc2)ncn1`, for which the GI50 with IGROV1 ovarian was 3 µM; in the assay with MOLT-4 leukemia, 2.05 µM; with OVCAR-3 ovarian, 2.18 µM; in the assay on HT29 colon it was 1.78 µM; in the assay with MALME-3M melanoma, 1.98 µM; in the assay on ACHN renal, 0.213 µM. Further, the GI50 with M14 melanoma is 1.55 µM; in the assay on U251 CNS, 2.12 µM; in the assay on CCRF-CEM leukemia, 1.83 µM; in the assay on EKVX NSCLC it was 1.99 µM. In addition, the TGI in the assay with IGROV1 ovarian amounted to 11.3 µM; in the assay with MOLT-4 leukemia it was 5.28 µM; with OVCAR-3 ovarian it was 6.26 µM; in the assay on HT29 colon, 4.53 µM; in the assay on MALME-3M melanoma, 4.93 µM; with ACHN renal it was 0.479 µM. In addition, the TGI in the assay with M14 melanoma came to 3.19 µM; in the assay with U251 CNS it was 10.5 µM; in the assay with CCRF-CEM leukemia it was 4.73 µM; in the assay on EKVX NSCLC, 6.79 µM.

Take `O=C1CNCCCN2CCN(CCCNCC(=O)Nc3ccc(cc3)S(=O)(=O)c3ccc(cc3)NC(=O)CNCCCN3CCN(CCCNCC(=O)Nc4ccc(cc4)S(=O)(=O)c4ccc(cc4)N1)CC3)CC2`: the TGI is over 69.7 µM with IGROV1 ovarian; over 51 µM in the assay with MOLT-4 leukemia; over 89.4 µM in the assay with OVCAR-3 ovarian; over 67.5 µM in the assay with HT29 colon; 24.2 µM in the assay on MALME-3M melanoma; over 61.5 µM in the assay on ACHN renal. The TGI is over 100 µM with M14 melanoma, over 61.8 µM with U251 CNS, over 100 µM in the assay with CCRF-CEM leukemia and over 100 µM in the assay with EKVX NSCLC.

Turning to `Cc1cc(I)cc(CNCCCN2CCSCC2)c1O`, the GI50 is 13.8 µM in the assay with IGROV1 ovarian; 15.1 µM with MOLT-4 leukemia; 14.1 µM in the assay on OVCAR-3 ovarian; 14 µM with HT29 colon; 17.3 µM in the assay with MALME-3M melanoma; 17.5 µM with ACHN renal. Also, the GI50 in the assay on M14 melanoma was 13.9 µM; in the assay with U251 CNS it was 16.4 µM; in the assay with CCRF-CEM leukemia, 10.4 µM; with EKVX NSCLC it was 19.1 µM. Moreover, the TGI is 29.7 µM in the assay on IGROV1 ovarian; 33.9 µM in the assay with MOLT-4 leukemia; 27.7 µM in the assay on OVCAR-3 ovarian; 27.8 µM in the assay with HT29 colon; 33.9 µM with MALME-3M melanoma; 33.8 µM with ACHN renal. Further, the TGI came to 28.4 µM with M14 melanoma, 31 µM in the assay with U251 CNS, 39.9 µM with CCRF-CEM leukemia and 50.3 µM with EKVX NSCLC.

On to `COC(=O)C1=C(C(=O)OC)C2C=CC1C1C(Cl)=C(Cl)C21` (stereo not given), for which the TGI in the assay with IGROV1 ovarian, with MOLT-4 leukemia, in the assay on OVCAR-3 ovarian, with HT29 colon, in the assay on MALME-3M melanoma and with ACHN renal was over 100 µM throughout. Besides, the TGI in the assay on M14 melanoma, in the assay on U251 CNS, with CCRF-CEM leukemia and in the assay on EKVX NSCLC was over 100 µM each time.

With `O=NN(Cc1ccc(Cl)cc1)C(C(=O)O)c1ccccc1` (stereo not given), the TGI in the assay on IGROV1 ovarian, in the assay with MOLT-4 leukemia, in the assay on OVCAR-3 ovarian, with HT29 colon, in the assay on MALME-3M melanoma and in the assay with ACHN renal was over 100 µM throughout. In addition, the TGI in the assay with M14 melanoma, in the assay with U251 CNS, with CCRF-CEM leukemia and in the assay with EKVX NSCLC was over 100 µM each time.

As for `COc1ccc(OC)c(NC(=O)C(=O)C(C(C)=O)c2nc3ccc(Cl)cc3[nH]c2=O)c1` (stereo not given), the TGI with IGROV1 ovarian, in the assay with MOLT-4 leukemia, in the assay on OVCAR-3 ovarian, in the assay with HT29 colon, with MALME-3M melanoma and in the assay on ACHN renal was over 50 µM in each case. For the same compound, the TGI was over 50 µM with M14 melanoma, over 50 µM with U251 CNS, over 5 µM with CCRF-CEM leukemia and over 50 µM with EKVX NSCLC.
